From ChEMBL document CHEMBL4308841, “Synthesis, in vitro antiproliferative activity, and kinase inhibitory effects of pyrazole-containing diarylureas and diarylamides” (Eur J Med Chem, 2018)

Assays:
[1] = tested on: A549; assay: Growth inhibition of human A549/ATCC cells assessed as cell growth at 100 uM incubated for 48 hrs by sulforhodamine B assay relative to control; format: functional; conditions: A549, 48 h, read-out: Activity
[2] = tested on: UO-31; assay: Growth inhibition of human UO31 cells assessed as cell growth at 0.1 uM incubated for 48 hrs by sulforhodamine B assay relative to control; format: functional; conditions: UO-31, 48 h, read-out: Activity
[3] = tested on: HCT-15; assay: Growth inhibition of human HCT15 cells incubated for 48 hrs by sulforhodamine B assay; format: functional, cell-based; conditions: HCT-15, 48 h
[4] = tested on: OVCAR-3; assay: Growth inhibition of human OVCAR3 cells assessed as cell growth at 1 uM incubated for 48 hrs by sulforhodamine B assay relative to control; format: functional; conditions: OVCAR-3, 48 h, read-out: Activity
[5] = tested on: OVCAR-5; assay: Growth inhibition of human OVCAR5 cells assessed as cell growth at 0.01 uM incubated for 48 hrs by sulforhodamine B assay relative to control; format: functional; conditions: OVCAR-5, 48 h, read-out: Activity
[6] = tested on: MCF7; assay: Growth inhibition of human MCF7 cells incubated for 48 hrs by sulforhodamine B assay; format: functional, cell-based; conditions: MCF7, 48 h
[7] = tested on: HCT-116; assay: Growth inhibition of human HCT116 cells assessed as cell growth at 0.1 uM incubated for 48 hrs by sulforhodamine B assay relative to control; format: functional; conditions: HCT-116, 48 h, read-out: Activity
[8] = tested on: PC-3; assay: Growth inhibition of human PC3 cells assessed as cell growth at 0.1 uM incubated for 48 hrs by sulforhodamine B assay relative to control; format: functional; conditions: PC-3, 48 h, read-out: Activity
[9] = tested on: CCRF-CEM; assay: Growth inhibition of human CCRF-CEM cells assessed as cell growth at 100 uM incubated for 48 hrs by sulforhodamine B assay relative to control; format: functional; conditions: read-out: Activity
[10] = tested on: MDA-MB-231; assay: Growth inhibition of human MDA-MB-231 cells assessed as cell growth at 0.01 uM incubated for 48 hrs by sulforhodamine B assay relative to control; format: functional; conditions: MDA-MB-231, 48 h, read-out: Activity
[11] = tested on: SK-MEL-2; assay: Growth inhibition of human SK-MEL-2 cells assessed as cell growth at 100 uM incubated for 48 hrs by sulforhodamine B assay relative to control; format: functional; conditions: SK-MEL-2, 48 h, read-out: Activity
[12] = tested on: NCI-H23; assay: Growth inhibition of human NCI-H23 cells incubated for 48 hrs by sulforhodamine B assay; format: functional, cell-based; conditions: NCI-H23, 48 h
[13] = tested on: Hs-578T; assay: Growth inhibition of human Hs578T cells assessed as cell growth at 0.1 uM incubated for 48 hrs by sulforhodamine B assay relative to control; format: functional; conditions: read-out: Activity
[14] = tested on: RPMI-8226; assay: Growth inhibition of human RPMI8226 cells assessed as cell growth at 1 uM incubated for 48 hrs by sulforhodamine B assay relative to control; format: functional; conditions: RPMI-8226, 48 h, read-out: Activity
[15] = tested on: MDA-MB-435; assay: Growth inhibition of human MDA-MB-435 cells assessed as cell growth at 100 uM incubated for 48 hrs by sulforhodamine B assay relative to control; format: functional; conditions: MDA-MB-435, 48 h, read-out: Activity
[16] = tested on: UO-31; assay: Growth inhibition of human UO31 cells incubated for 48 hrs by sulforhodamine B assay; format: functional, cell-based; conditions: UO-31, 48 h
[17] = tested on: UACC-257; assay: Growth inhibition of human UACC257 cells assessed as cell growth at 100 uM incubated for 48 hrs by sulforhodamine B assay relative to control; format: functional; conditions: UACC-257, 48 h, read-out: Activity
[18] = tested on: SF-295; assay: Growth inhibition of human SF295 cells assessed as cell growth at 0.01 uM incubated for 48 hrs by sulforhodamine B assay relative to control; format: functional; conditions: SF-295, 48 h, read-out: Activity
[19] = tested on: ACHN; assay: Growth inhibition of human ACHN cells assessed as cell growth at 1 uM incubated for 48 hrs by sulforhodamine B assay relative to control; format: functional; conditions: read-out: Activity
[20] = tested on: SK-MEL-2; assay: Growth inhibition of human SK-MEL-2 cells assessed as cell growth at 0.1 uM incubated for 48 hrs by sulforhodamine B assay relative to control; format: functional; conditions: SK-MEL-2, 48 h, read-out: Activity
[21] = tested on: HOP-62; assay: Growth inhibition of human HOP62 cells incubated for 48 hrs by sulforhodamine B assay; format: functional, cell-based; conditions: HOP-62, 48 h
[22] = tested on: SK-MEL-28; assay: Growth inhibition of human SK-MEL-28 cells incubated for 48 hrs by sulforhodamine B assay; format: functional, cell-based; conditions: SK-MEL-28, 48 h
[23] = tested on: MDA-MB-231; assay: Growth inhibition of human MDA-MB-231 cells assessed as cell growth at 0.1 uM incubated for 48 hrs by sulforhodamine B assay relative to control; format: functional; conditions: MDA-MB-231, 48 h, read-out: Activity
[24] = tested on: OVCAR-3; assay: Growth inhibition of human OVCAR3 cells assessed as cell growth at 0.01 uM incubated for 48 hrs by sulforhodamine B assay relative to control; format: functional; conditions: OVCAR-3, 48 h, read-out: Activity
[25] = tested on: SF-539; assay: Growth inhibition of human SF539 cells incubated for 48 hrs by sulforhodamine B assay; format: functional, cell-based; conditions: SF-539, 48 h
[26] = tested on: SK-MEL-2; assay: Growth inhibition of human SK-MEL-2 cells incubated for 48 hrs by sulforhodamine B assay; format: functional, cell-based; conditions: SK-MEL-2, 48 h
[27] = tested on: Malme-3M; assay: Growth inhibition of human MALME-3M cells assessed as cell growth at 0.01 uM incubated for 48 hrs by sulforhodamine B assay relative to control; format: functional; conditions: read-out: Activity
[28] = tested on: Malme-3M; assay: Growth inhibition of human MALME-3M cells assessed as cell growth at 100 uM incubated for 48 hrs by sulforhodamine B assay relative to control; format: functional; conditions: read-out: Activity
[29] = read-out: LC50 (the source's name)
[30] = read-out: pLC50 (the source's name) (converted)

COc1cc(Cl)cc(-c2nn(-c3cccc(NC(=O)c4ccc(N5CCOCC5)c(C(F)(F)F)c4)c3)cc2-c2ccncc2)c1 was tested, and the growth at 100 µM [1] was 25%, the growth at 0.1 µM [2] was 87% and the GI50 ([3]; read-out: GI50) was 3.25 µM. For the same compound, the CC50 [3, 29] was greater than 100 µM, the TGI ([3]; read-out: TGI) was greater than 100 µM and the GI50 ([3]; read-out: pGI50 (converted)) was 3.24 µM. For the same compound, the CC50 [3, 30] was greater than 100 µM, the TGI ([3]; read-out: pTGI (converted)) was greater than 100 µM and the growth at 1 µM [4] was 100%. For the same compound, the growth at 0.01 µM [5] was 94%, the GI50 ([6]; read-out: GI50) was 5.71 µM and the LC50 ([6]; read-out: LC50) was greater than 100 µM. It also gave a TGI ([6]; read-out: TGI) greater than 100 µM, a GI50 ([6]; read-out: pGI50 (converted)) of 8.71 µM and an LC50 ([6]; read-out: pLC50 (converted)) greater than 100 µM. The TGI ([6]; read-out: pTGI (converted)) was greater than 100 µM, the growth at 0.1 µM [7] was 97% and the growth at 0.1 µM [8] was 95%. For the same compound, the growth at 100 µM [9] was 18%, the growth at 0.01 µM [10] was 99% and the growth at 100 µM [11] was 15%. For the same compound, the GI50 ([12]; read-out: GI50) was 3.07 µM, the LC50 ([12]; read-out: LC50) was greater than 100 µM and the TGI ([12]; read-out: TGI) was greater than 100 µM. It also gave a GI50 ([12]; read-out: pGI50 (converted)) of 30.9 µM, an LC50 ([12]; read-out: pLC50 (converted)) greater than 100 µM and a TGI ([12]; read-out: pTGI (converted)) greater than 100 µM. For the same compound, the growth at 0.1 µM [13] was 92%, the growth at 1 µM [14] was 59% and the growth at 100 µM [15] was 42%. The IC50 [16] was 4.5 µM, the GI50 ([16]; read-out: GI50) was 4.5 µM and the CC50 [16, 29] was greater than 100 µM. It also gave a TGI ([16]; read-out: TGI) greater than 100 µM, a GI50 ([16]; read-out: pGI50 (converted)) of 4.47 µM and a CC50 [16, 30] greater than 100 µM. The TGI ([16]; read-out: pTGI (converted)) was greater than 100 µM, the growth at 100 µM [17] was -18% and the growth at 0.01 µM [18] was 90%. It also gave a growth at 1 µM [19] of 58%, a growth at 0.1 µM [20] of 83% and a GI50 ([21]; read-out: GI50) of 6.78 µM. For the same compound, the CC50 [21, 29] was greater than 100 µM, the TGI ([21]; read-out: TGI) was greater than 100 µM and the GI50 ([21]; read-out: pGI50 (converted)) was 63.1 µM. The CC50 [21, 30] was greater than 100 µM, the TGI ([21]; read-out: pTGI (converted)) was greater than 100 µM and the GI50 ([22]; read-out: GI50) was 1.48 µM. The CC50 [22, 29] was greater than 100 µM, the TGI ([22]; read-out: TGI) was greater than 100 µM and the GI50 ([22]; read-out: pGI50 (converted)) was 14.8 µM. The CC50 [22, 30] was greater than 100 µM, the TGI ([22]; read-out: pTGI (converted)) was greater than 100 µM and the growth at 0.1 µM [23] was 97%. It also gave a growth at 0.01 µM [24] of 100%, a GI50 ([25]; read-out: GI50) of 3.74 µM and a CC50 [25, 29] greater than 100 µM. It also gave a TGI ([25]; read-out: TGI) greater than 100 µM, a GI50 ([25]; read-out: pGI50 (converted)) of 3.72 µM and a CC50 [25, 30] greater than 100 µM. The TGI ([25]; read-out: pTGI (converted)) was greater than 100 µM, the GI50 ([26]; read-out: GI50) was 2.11 µM and the CC50 [26, 29] was greater than 100 µM. The TGI ([26]; read-out: TGI) was greater than 100 µM, the GI50 ([26]; read-out: pGI50 (converted)) was 26.3 µM and the CC50 [26, 30] was greater than 100 µM. It also gave a TGI ([26]; read-out: pTGI (converted)) greater than 100 µM, a growth at 0.01 µM [27] of 91% and a growth at 100 µM [28] of 23%.
